Measurements as given in paper PMC10762035, “Molecular basis of human trace amine-associated receptor 1 activation” (Nature Communications, 2024).
Residue numbers refer to the chain shown, from its start. Several values for one entry are separate records, joined by “and”; a condition that tells them apart may be missing. Equal values may be shown once. Read-outs that look alike come from different tables or passages of the source.

Experiments:
Type in all cases: cell-based
hTA1 T271A = target: T1, hTA1 T271A (Homo sapiens, UniProt Q96RJ0, T271A); assay: GloSensor cAMP accumulation assay, T271A mutant
T1 construct: expressed in transfected cells; host or cells: HEK293T
T1 sequence (Q96RJ0 1-339 T271A): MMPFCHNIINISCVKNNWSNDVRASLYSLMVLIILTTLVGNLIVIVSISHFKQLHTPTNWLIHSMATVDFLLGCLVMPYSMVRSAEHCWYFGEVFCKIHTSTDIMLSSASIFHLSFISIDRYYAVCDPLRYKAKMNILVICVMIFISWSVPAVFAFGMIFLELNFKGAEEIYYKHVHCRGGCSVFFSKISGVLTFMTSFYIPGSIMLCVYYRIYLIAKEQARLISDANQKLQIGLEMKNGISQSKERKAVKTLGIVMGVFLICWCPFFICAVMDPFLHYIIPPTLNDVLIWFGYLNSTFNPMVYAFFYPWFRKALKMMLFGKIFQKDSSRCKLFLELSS

hTA1 C13S = target: T2, hTA1 C13S (Homo sapiens, UniProt Q96RJ0, C13S); assay: GloSensor cAMP accumulation assay, C13S mutant; details: for C13S - Normalized Luminescence Counts (N=2): log[Compound], single wells
T2 construct: expressed in transfected cells; host or cells: HEK293T
T2 sequence (Q96RJ0 1-339 C13S): T1 sequence (Q96RJ0 1-339 T271A) with C13S, A271T

hTA1 S107C = target: T3, hTA1 S107C (Homo sapiens, UniProt Q96RJ0, S107C); assay: GloSensor cAMP accumulation assay, S107C mutant;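 further: cells transiently co-expressing receptor and GloSensor biosensor, luminescence read after 30 min agonist exposure at room temperature, concentration-response fitted by nonlinear regression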
T3 construct: expressed in transfected cells; host or cells: HEK293T
T3 sequence (Q96RJ0 1-339 S107C): T1 sequence (Q96RJ0 1-339 T271A) with S107C, A271T

hTA1 I290N = target: T4, hTA1 I290N (Homo sapiens, UniProt Q96RJ0, I290N); assay: GloSensor cAMP accumulation assay, I290N mutant;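 further: cells transiently co-expressing hTA1 and the GloSensor cAMP biosensor, luminescence read 30 min after compound addition at room temperature, efficacy scaled to the maximal β-PEA response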
T4 construct: expressed in transfected cells; host or cells: HEK293T
T4 sequence (Q96RJ0 1-339 I290N): T1 sequence (Q96RJ0 1-339 T271A) with A271T, I290N

hTA1 C178S = target: T5, hTA1 C178S (Homo sapiens, UniProt Q96RJ0, C178S); assay: GloSensor cAMP accumulation assay, C178S mutant; details: for C178S - Normalized Luminescence Counts (N=2): log[Compound], single replicates
T5 construct: expressed in transfected cells; host or cells: HEK293T
T5 sequence (Q96RJ0 1-339 C178S): T1 sequence (Q96RJ0 1-339 T271A) with C178S, A271T

Compound: NCCc1ccc(O)cc1 [TYR, tyramine]
- reduction in potency vs wild type (hTA1 T271A; T271A): about 10 fold
- EC50 (hTA1 T271A; T271A mutant, Figure 5B, each row one independent experiment (3 replicates), read-out: pEC50 values, Mean (converted)): 7630 nM and 3080 nM
- Emax values, Mean (hTA1 T271A; T271A mutant, Figure 5B, β-PEA = 100, each row one independent experiment (3 replicates)): 138.16 and 109.079
- EC50 (hTA1 T271A; T271A, n=2, read-out: EC50): 4850 nM
- Emax (hTA1 T271A; T271A, n=2, read-out: Span ± SEM (Emax normalized to β-PEA)): 124%
- ΔpEC50 values (each mutant value - WT average) (hTA1 C13S; C13S): -0.3688 and -0.3329
- Emax values (hTA1 C13S; C13S, Mean of fit per experiment): 110.911
- Emax (hTA1 C13S; C13S, Mean of fit per experiment, read-out: Emax values): 93.7%
- EC50 (hTA1 C13S; C13S, n=2, read-out: EC50): 931 nM
- Emax (hTA1 C13S; C13S, n=2, read-out: Span ± SEM (Emax normalized to β-PEA)): 102 ± 8.61%
- EC50 (hTA1 C13S; hTA1 C13S, mean of 3 replicates, one line per independent experiment, read-out: pEC50 values, Mean (converted)): 970 nM and 893 nM
- C13S - Normalized Luminescence Counts (N=2) (hTA1 C13S; M = -5): 78.8304 and 97.2912 and 83.436 and 97.1609 and 112.12 and 105.729
- C13S - Normalized Luminescence Counts (N=2) (hTA1 C13S; M = -5.522): 59.6843 and 75.6711 and 68.2867 and 72.4375 and 86.5575 and 83.5764
- C13S - Normalized Luminescence Counts (N=2) (hTA1 C13S; M = -6): 42.8222 and 56.3728 and 40.1958 and 58.5139 and 61.7985 and 54.8367
- C13S - Normalized Luminescence Counts (N=2) (hTA1 C13S; M = -6.522): 23.1813 and 24.6658 and 21.4304 and 27.8641 and 32.7195 and 30.988
- ΔEmax values (each mutant value - WT average) (hTA1 S107C; S107C mutant minus WT average): 8.654
- Emax values, Mean (hTA1 S107C; S107C mutant, β-PEA = 100, each line an independent experiment, 3 replicates): 107.638 and 133.074
- EC50 (hTA1 S107C; S107C, n=2, read-out: EC50): 186 nM
- Emax (hTA1 S107C; S107C, n=2, read-out: Span ± SEM (Emax normalized to β-PEA)): 120%
- EC50 (hTA1 I290N; I290N, n=2, read-out: EC50): 492 nM
- Emax (hTA1 I290N; I290N, n=2, read-out: Span ± SEM (Emax normalized to β-PEA)): 99.42 ± 0.19%
- cAMP accumulation response, single replicate values (source data, Supplementary Figure 5) (hTA1 I290N; hTA1 I290N (N=2), log[Compound], M = -5): 84.4195 and 103.709 and 90.7072 and 91.6949
- ΔpEC50 values (each mutant value - WT average), Mean (hTA1 I290N; hTA1 I290N mutant minus WT average): -0.07565 and -0.07195
- EC50 (hTA1 I290N; hTA1 I290N mutant, Figure 3B source data, each grid row a separate experiment, 3 replicates, read-out: pEC50 values (Mean) (converted)): 494 nM and 490 nM
- Emax values, Mean (hTA1 I290N; hTA1 I290N mutant, β-PEA set to 100, each grid row a separate experiment, 3 replicates): 99.2249
- Emax (hTA1 I290N; hTA1 I290N mutant, β-PEA set to 100, each grid row a separate experiment, 3 replicates, read-out: Emax values (Mean)): 99.6%
- ΔpEC50 values (each mutant value - WT average), Mean (hTA1 C178S; C178S, each row one experiment (N=2), 3 replicates): 0.02169 and 0.1822
- EC50 (hTA1 C178S; C178S, each row one experiment (N=2), 3 replicates, read-out: pEC50 values, Mean (converted)): 395 nM and 273 nM
- EC50 (hTA1 C178S; C178S, n=2, read-out: EC50): 328 nM
- Emax (hTA1 C178S; C178S, n=2, read-out: Span ± SEM (Emax normalized to β-PEA)): 98.4 ± 1.77%
- Emax values, Mean (hTA1 C178S; C178S, β-PEA = 100, each row one experiment (N=2), 3 replicates): 100.127
- Emax (hTA1 C178S; C178S, β-PEA = 100, each row one experiment (N=2), 3 replicates, read-out: Emax values, Mean): 96.6%
- C178S - Normalized Luminescence Counts (N=2) (hTA1 C178S; M = -5): 91.979 and 95.8576 and 102.026 and 75.3904 and 102.974 and 107.581
- C178S - Normalized Luminescence Counts (N=2) (hTA1 C178S; M = -5.522): 87.8668 and 77.3994 and 76.8387 and 82.4508 and 101.179 and 88.1949
- C178S - Normalized Luminescence Counts (N=2) (hTA1 C178S; M = -6): 67.8199 and 64.4086 and 66.1843 and 84.2459 and 87.7162 and 94.2082
- C178S - Normalized Luminescence Counts (N=2) (hTA1 C178S; M = -6.522): 42.5859 and 50.2963 and 40.4364 and 48.0464 and 47.119 and 50.6791
- C178S - Normalized Luminescence Counts (N=2) (hTA1 C178S; M = -7): 17.0716 and 19.2212 and 22.0717 and 25.7583 and 28.0918 and 27.3439
- C178S - Normalized Luminescence Counts (N=2) (hTA1 C178S; M = -7.522): 4.922 and 5.576 and 4.735 and 10.3511 and 8.496 and 10.8597
- C178S - Normalized Luminescence Counts (N=2) (hTA1 C178S; M = -8): 0.8565 and 3.099 and 2.0247 and 3.141 and 5.295 and 4.428
- C178S - Normalized Luminescence Counts (N=2) (hTA1 C178S; M = -8.522): -0.4052 and -0.03139 and 0.3892 and 0.9572 and 2.034 and 4.517
- C178S - Normalized Luminescence Counts (N=2) (hTA1 C178S; M = -9): -1.013 and -1.2 and 0.1555 and -0.5985 and 0.02978 and 0.3589
- C178S - Normalized Luminescence Counts (N=2) (hTA1 C178S; M = -9.522): -0.5454 and -1.1529 and -1.2 and -0.9575 and 1.615 and 1.376
- C178S - Normalized Luminescence Counts (N=2) (hTA1 C178S; M = -10): -0.4052 and -0.07812 and -0.966 and 0.5982 and 1.645 and 1.346
- C178S - Normalized Luminescence Counts (N=2) (hTA1 C178S; M = -10.522): -0.7791 and -0.3118 and -0.5921 and -2.214 and -0.2395 and -1.047
- C178S - Normalized Luminescence Counts (N=2) (hTA1 C178S; M = -11): -0.8258 and -0.3585 and -1.106 and 0.08961 and 2.782 and 2.932
- C178S - Normalized Luminescence Counts (N=2) (hTA1 C178S; M = -11.522): -0.1716 and 0.1555 and 0.1088 and 1.047 and 3.051 and 2.303
- C178S - Normalized Luminescence Counts (N=2) (hTA1 C178S; M = -12): -0.9193 and -0.3118 and -0.6389 and 0.6281 and 2.423 and 2.214
- C178S - Normalized Luminescence Counts (N=2) (hTA1 C178S; M = -12.522): 0.2023 and -0.07812 and -0.03139 and -1.077 and 1.944 and 2.603
